Test results from patent US10829458B2 (Araxes Pharma LLC, priority 2015, dated 2020).

The compounds below were run against T1, KRAS G12C 1-169, his-tagged protein, GDP-loaded (Homo sapiens, UniProt P01116, G12C) (assay: Biochemical assay: covalent modification of KRAS G12C measured by mass spectrometry (RapidFire/TOF or Q-Exactive)). Details: covalent binding to KRAS G12C; compounds of structure (I).
T1 construct: KRAS G12C 1-169, his-tagged protein, GDP-loaded
Summary of the method: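 GDP-loaded his-tagged KRAS G12C 1-169 at 2 μM in 20 mM Hepes, 150 mM NaCl, 1 mM MgCl2 incubated at room temperature with compound (10, 30 or 100 μM final, 2% DMSO) for 30 min, 2 h or 24 h, then quenched with formic acid. Intact-protein LC-MS (RapidFire/TOF or Q-Exactive) with deconvolution quantified modified versus unmodified protein.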

SMILES | Binding %
C=CC(=O)N1CCN(c2nc(N3CCOCC3)nc3c(F)c(-c4cc(O)cc5ccccc45)c(Cl)cc23)CC1 [Example I-46, 1-(4-(6-chloro-8-fluoro-7-(3-hydroxy-naphthalen-1-yl)-2-morpholino-quinazolin-4-yl)piperazin-1-yl)prop-2-en-1-one] | +++ (+++ indicates binding activity greater than 90%)
C=CC(=O)N1CCN(c2nc(OCCN3CCC(F)(F)C3)nc3c(F)c(-c4c(C)ccc5[nH]ncc45)c(Cl)cc23)CC1 [Example I-146, 1-(4-(6-chloro-2-(2-(3,3-difluoro-pyrrolidin-1-yl)ethoxy)-8-fluoro-7-(5-methyl-1H-indazol-4-yl)quinazolin-4-yl)piperazin-1-yl) prop-2-en-1-one] | +++ (+++ indicates binding activity greater than 90%)
C=CC(=O)N1CCN(c2nc(NC3CCOC3)nc3c(F)c(-c4cc(O)cc5ccccc45)c(Cl)cc23)CC1 (stereo not shown) [Example I-71, 1-(4-(6-chloro-8-fluoro-7-(3-hydroxy-naphthalen-1-yl)-2-(tetrahydro-furan-3-ylamino)quinazolin-4-yl)piperazin-1-yl)prop-2-en-1-one] | +++ (+++ indicates binding activity greater than 90%)
C=CC(=O)N1CCN(c2nc(OCCN3CCC(F)(F)C3)nc3c(F)c(-c4c(O)cccc4F)c(Cl)cc23)CC1 (atropisomer, axis not shown) [Example I-97, (S)-1-(4-(6-chloro-2-(2-(3,3-difluoro-pyrrolidin-1-yl)ethoxy)-8-fluoro-7-(2-fluoro-6-hydroxyphenyl)quinazolin-4-yl)piperazin-1-yl)prop-2-en-1-one] | +++ (+++ indicates binding activity greater than 90%)
C=CC(=O)N1CCN(c2nc(OCCN3CCN(C(C)C)CC3)nc3c(F)c(-c4c(O)cccc4F)c(Cl)cc23)CC1 [Example I-42, 1-(4-(6-chloro-8-fluoro-7-(2-fluoro-6-hydroxyphenyl)-2-(2-(4-isopropyl-piperazin-1-yl)ethoxy)quinazolin-4-yl)piperazin-1-yl)prop-2-en-1-one] | +++ (+++ indicates binding activity greater than 90%)
C=CC(=O)N1CCN(c2nc(OC3CCN(CC(F)(F)F)C3)nc3c(F)c(-c4c(O)cccc4F)c(Cl)cc23)CC1 (stereo not shown) [Example I-26, 1-(4-(6-chloro-8-fluoro-7-(2-fluoro-6-hydroxyphenyl)-2-(1-(2,2,2-trifluoroethyl)pyrrolidin-3-yloxy)quinazolin-4-yl)piperazin-1-yl)prop-2-en-1-one] | +++ (+++ indicates binding activity greater than 90%)
CN(C)C/C=C/C(=O)N1CCN(c2nc(OCCN3CCOCC3)nc3c(F)c(-c4c(O)cccc4F)c(Cl)cc23)CC1 [Example I-74, (E)-1-(4-(6-chloro-8-fluoro-7-(2-fluoro-6-hydroxyphenyl)-2-(2-morpholino-ethoxy)quinazolin-4-yl)piperazin-1-yl)-4-(dimethyl-amino)but-2-en-1-one] | +++ (+++ indicates binding activity greater than 90%)
C=C(F)C(=O)N1CCN(c2nc(OCCN3CCOCC3)nc3c(F)c(-c4cc(O)cc5ccccc45)c(Cl)cc23)CC1 [Example I-50, 1-(4-(6-chloro-8-fluoro-7-(3-hydroxy-naphthalen-1-yl)-2-(2-morpholino-ethoxy)quinazolin-4-yl)piperazin-1-yl)-2-fluoroprop-2-en-1-one] | ++ (++ indicates binding activity from 50 to 90%)
C=CC(=O)N1CCN(c2nc(OCCc3ccccn3)nc3c(F)c(-c4cc(O)cc5ccccc45)c(Cl)cc23)CC1 [Example I-44, 1-(4-(6-chloro-8-fluoro-7-(3-hydroxy-naphthalen-1-yl)-2-(2-(pyridin-2-yl)ethoxy)quinazolin-4-yl)piperazin-1-yl) prop-2-en-1-one] | +++ (+++ indicates binding activity greater than 90%)

Same assay, conditions: covalent binding to KRAS G12C; compounds of structure (III)

SMILES | Binding %
C=CC(=O)N1C[C@@H](C)N(c2ncnc3c(F)c(-c4c(O)cccc4F)c(Cl)cc23)[C@@H](C)C1 (atropisomer, axis not shown) [III-36] | +++ (+++ indicates binding activity greater than 90%)
